How the values were obtained:
[1] = target: Glutamate receptor ionotropic, kainate 1 (Homo sapiens, UniProt P39086); assay: Displacement of [3H]ATPA from human Gluk1 receptor
Glutamate receptor 2 = Glutamate receptor 2 (Homo sapiens, UniProt P42262); assay: Displacement of [3H]AMPA from homomeric recombinant GluA2 receptor (unknown origin)
Rattus norvegicus [2] = assay: Analgesic activity in rat assessed as reversal of carrageenan-induced thermal hyperalgesia at 10 mg/kg, sc after 30 to 40 mins relative to vehicle-treated control; type: functional; conditions: route subcutaneous
[3] = Plasma concentration in rat at 5 mg/kg, po after 1 hr; type: ADME, organism-based; set-up: dose 5 mg/kg, route oral
Rattus norvegicus [4] = assay: Toxicity in Sprague-Dawley rat assessed as sedation at 5 to 10 mg/kg, po by rotarod test; type: organism-based; set-up: dose 5-10 mg/kg, route oral; conditions: in vivo
Rattus norvegicus [5] = assay: Analgesic activity in po dosed rat assessed as reversal of carrageenan-induced thermal hyperalgesia after 60 mins; type: functional; conditions: 1 h, read-out: MED
Rattus norvegicus [6] = assay: Analgesic activity in po dosed Sprague-Dawley rat assessed as reversal of formalin-induced late-phase paw-licking behavior after 1 hr; type: functional; conditions: read-out: MED
Rattus norvegicus [7] = assay: Toxicity in Sprague-Dawley rat assessed as ataxia at 5 to 10 mg/kg, po by rotarod test; type: organism-based; set-up: dose 5-10 mg/kg, route oral; conditions: in vivo
[8] = Oral bioavailability in rat at 5 mg/kg; type: ADME, organism-based; conditions: in vivo

Sequence of Glutamate receptor ionotropic, kainate 1 (P39086 whole entry): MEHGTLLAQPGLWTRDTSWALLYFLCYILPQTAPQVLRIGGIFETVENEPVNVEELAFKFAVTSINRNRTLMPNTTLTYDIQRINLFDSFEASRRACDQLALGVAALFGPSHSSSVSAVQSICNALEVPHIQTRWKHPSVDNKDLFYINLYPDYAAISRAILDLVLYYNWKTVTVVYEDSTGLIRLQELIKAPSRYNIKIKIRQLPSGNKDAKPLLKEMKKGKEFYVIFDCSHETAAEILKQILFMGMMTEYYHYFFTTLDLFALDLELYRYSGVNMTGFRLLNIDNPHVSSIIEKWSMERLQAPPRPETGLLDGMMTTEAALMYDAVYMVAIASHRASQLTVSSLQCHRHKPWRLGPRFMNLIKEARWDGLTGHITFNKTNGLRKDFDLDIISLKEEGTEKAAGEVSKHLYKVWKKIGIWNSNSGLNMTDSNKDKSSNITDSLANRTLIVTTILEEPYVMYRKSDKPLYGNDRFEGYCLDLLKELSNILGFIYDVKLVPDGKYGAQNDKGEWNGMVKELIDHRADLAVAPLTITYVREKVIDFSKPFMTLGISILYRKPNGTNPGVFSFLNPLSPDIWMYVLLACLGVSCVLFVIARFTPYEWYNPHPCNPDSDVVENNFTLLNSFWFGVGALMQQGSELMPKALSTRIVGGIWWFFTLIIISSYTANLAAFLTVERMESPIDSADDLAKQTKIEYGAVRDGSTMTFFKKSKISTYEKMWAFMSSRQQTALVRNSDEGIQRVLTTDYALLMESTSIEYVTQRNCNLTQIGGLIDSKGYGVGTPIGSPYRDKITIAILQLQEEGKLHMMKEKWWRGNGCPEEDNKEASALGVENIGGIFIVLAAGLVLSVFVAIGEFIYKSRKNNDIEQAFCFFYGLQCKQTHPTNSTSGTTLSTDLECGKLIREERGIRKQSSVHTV
Sequence of Glutamate receptor 2 (P42262 whole entry): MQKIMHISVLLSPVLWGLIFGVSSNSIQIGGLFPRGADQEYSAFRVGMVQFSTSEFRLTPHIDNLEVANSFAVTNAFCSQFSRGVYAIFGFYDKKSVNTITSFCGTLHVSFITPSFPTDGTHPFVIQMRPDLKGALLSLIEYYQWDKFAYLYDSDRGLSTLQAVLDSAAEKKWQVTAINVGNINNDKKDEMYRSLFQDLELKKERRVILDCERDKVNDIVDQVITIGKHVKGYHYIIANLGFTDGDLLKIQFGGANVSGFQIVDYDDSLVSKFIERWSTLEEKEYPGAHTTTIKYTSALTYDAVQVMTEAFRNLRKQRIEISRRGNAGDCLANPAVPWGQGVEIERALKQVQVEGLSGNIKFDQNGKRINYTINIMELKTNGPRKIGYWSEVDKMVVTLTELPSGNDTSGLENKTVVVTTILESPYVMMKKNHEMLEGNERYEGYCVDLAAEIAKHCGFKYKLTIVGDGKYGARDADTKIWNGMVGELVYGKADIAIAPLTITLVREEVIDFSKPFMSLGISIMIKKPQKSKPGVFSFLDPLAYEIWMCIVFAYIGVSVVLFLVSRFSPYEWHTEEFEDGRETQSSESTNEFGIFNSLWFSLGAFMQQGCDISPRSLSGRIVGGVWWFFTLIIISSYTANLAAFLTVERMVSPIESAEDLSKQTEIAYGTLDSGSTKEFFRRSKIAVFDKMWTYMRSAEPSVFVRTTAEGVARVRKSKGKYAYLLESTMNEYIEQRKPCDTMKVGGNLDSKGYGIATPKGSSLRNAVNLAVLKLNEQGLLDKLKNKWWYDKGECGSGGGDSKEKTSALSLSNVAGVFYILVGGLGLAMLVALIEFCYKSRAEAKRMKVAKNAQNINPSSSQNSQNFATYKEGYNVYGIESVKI

| Structure (SMILES) | Ki [1] [µM] | Ki (Glutamate receptor 2) [µM] | Activity (Rattus norvegicus [2]) [%] | other results |
| --- | --- | --- | --- | --- |
| O=C(O)[C@@H]1C[C@H]2C[C@@H](Oc3ccccc3-c3nn[nH]n3)CC[C@H]2CN1 | 1.2 | 16 | 152.6 | – |
| O=C(O)[C@@H]1C[C@H]2C[C@@H](Nc3ccccc3-c3nn[nH]n3)CC[C@H]2CN1 | 0.8 | 6 | 124.8 | – |
| Cl.O=C(O)c1ccc(C[C@H]2CC[C@H]3CN[C@H](C(=O)O)C[C@H]3C2)cc1 | – | – | 67.8 | – |
| Cl.O=C(O)[C@@H]1C[C@H]2C[C@@H](Oc3cc(OCc4ccccc4)ccc3-c3nnn[nH]3)CC[C@H]2CN1 | 0.16 | 17 | 81.7 | – |
| Cl.O=C(O)[C@@H]1C[C@H]2C[C@@H](Oc3cc(Cc4ccccc4)ccc3-c3nnn[nH]3)CC[C@H]2CN1 | 0.16 | 9.6 | 89.8 | – |
| Cl.O=C(O)[C@@H]1C[C@H]2C[C@@H](Cc3ccccc3-c3nnn[nH]3)CC[C@H]2CN1 | 3 | 13 | 73 | – |
| Cl.O=C(O)[C@@H]1C[C@H]2C[C@@H](Sc3ccccc3-c3nnn[nH]3)CC[C@H]2CN1 | 0.6 | 22 | 52.6 | – |
| Cl.O=C(O)[C@@H]1C[C@H]2C[C@@H](Oc3cccc(Cl)c3-c3nnn[nH]3)CC[C@H]2CN1 | 0.2 | 30 | 80.2 | concentration at 1 h [3]: 1020 ng/mL; Activity (Rattus norvegicus [4]): Toxic; minimal effective dose (Rattus norvegicus [5]): 3 mg/kg; minimal effective dose (Rattus norvegicus [6]): 1 mg/kg; Activity (Rattus norvegicus [7]): Toxic; bioavailability [8]: 42% |
| Cc1cccc(N[C@H]2CC[C@H]3CN[C@H](C(=O)O)C[C@H]3C2)c1-c1nnn[nH]1 | 3.2 | 128 | – | – |
| O=C(O)[C@@H]1C[C@H]2C[C@@H](Nc3cccc(Cl)c3-c3nnn[nH]3)CC[C@H]2CN1 | – | 6.4 | – | – |
| Cl.O=C(O)[C@@H]1C[C@H]2C[C@@H](Oc3cc(-c4ccccc4)ccc3-c3nnn[nH]3)CC[C@H]2CN1 | 0.1 | 2.3 | 100.8 | – |
| CC(C)Oc1ccc(-c2nnn[nH]2)c(O[C@H]2CC[C@H]3CN[C@H](C(=O)O)C[C@H]3C2)c1.Cl | 0.9 | 12 | 76.9 | – |
| O=C(O)[C@@H]1C[C@H]2C[C@@H](CCc3nn[nH]n3)CC[C@H]2CN1 [TEZAMPANEL ANHYDROUS] | – | – | 133 | – |

Further lines, with some results ahead:

| Ki [1] [µM] | Ki (Glutamate receptor 2) [µM] | Structure (SMILES) | Activity (Rattus norvegicus [2]) [%] | other results |
| --- | --- | --- | --- | --- |
| 17 | 335 | O=C(O)[C@@H]1C[C@H]2C[C@@H](Oc3cc(Oc4ccccc4)ccc3-c3nnn[nH]3)CC[C@H]2CN1 | – | – |
| 1.7 | 9.6 | O=C(O)[C@@H]1C[C@H]2C[C@@H](Oc3cc(CCc4ccccc4)ccc3-c3nnn[nH]3)CC[C@H]2CN1 | – | – |
| 1.1 | 252 | COc1cccc(O[C@H]2CC[C@H]3CN[C@H](C(=O)O)C[C@H]3C2)c1-c1nnn[nH]1 | – | – |
| 12.8 | 181 | COc1cccc(N[C@H]2CC[C@H]3CN[C@H](C(=O)O)C[C@H]3C2)c1-c1nnn[nH]1 | – | – |
| 0.9 | 2.7 | O=C(O)[C@@H]1C[C@H]2C[C@@H](Oc3ccc(F)cc3-c3nnn[nH]3)CC[C@H]2CN1 | – | – |
| 0.4 | 0.4 | O=C(O)[C@@H]1C[C@H]2C[C@@H](Oc3ccc(Cl)cc3-c3nnn[nH]3)CC[C@H]2CN1 | – | – |
| – | 12 | O=C(O)[C@@H]1C[C@H]2C[C@@H](Nc3ccc(F)cc3-c3nnn[nH]3)CC[C@H]2CN1 | – | – |
| 1.1 | 5.2 | Cc1ccc(-c2nnn[nH]2)c(O[C@H]2CC[C@H]3CN[C@H](C(=O)O)C[C@H]3C2)c1 | – | – |
| 1.4 | 2 | COc1ccc(-c2nnn[nH]2)c(O[C@H]2CC[C@H]3CN[C@H](C(=O)O)C[C@H]3C2)c1 | – | – |
| 2.9 | 6.2 | Cc1ccc(-c2nnn[nH]2)c(N[C@H]2CC[C@H]3CN[C@H](C(=O)O)C[C@H]3C2)c1 | – | – |
| 1.1 | 3.5 | O=C(O)[C@@H]1C[C@H]2C[C@@H](Nc3cc(-c4ccccc4)ccc3-c3nnn[nH]3)CC[C@H]2CN1 | – | – |
| 422 | 450 | O=C(O)[C@@H]1C[C@H]2C[C@@H](Oc3c(F)cccc3-c3nnn[nH]3)CC[C@H]2CN1 | – | – |
| 1 | 13 | O=C(O)[C@@H]1C[C@H]2C[C@@H](Oc3cc(-c4ccccc4Cl)ccc3-c3nnn[nH]3)CC[C@H]2CN1 | – | – |
| 0.7 | 1.7 | O=C(O)[C@@H]1C[C@H]2C[C@@H](Oc3cc(-c4cccc(Cl)c4)ccc3-c3nnn[nH]3)CC[C@H]2CN1 | – | – |
| 0.02 | 0.003 | O=C(O)[C@@H]1C[C@H]2C[C@@H](Oc3cc(-c4ccc(Cl)cc4)ccc3-c3nnn[nH]3)CC[C@H]2CN1 | – | – |
| 0.9 | 2.2 | O=C(O)[C@@H]1C[C@H]2C[C@@H](Oc3cc(-c4nccs4)ccc3-c3nnn[nH]3)CC[C@H]2CN1 | – | – |
| 0.09 | 4.4 | O=C(O)[C@@H]1C[C@H]2C[C@@H](Oc3cc(-c4cccs4)ccc3-c3nnn[nH]3)CC[C@H]2CN1 | – | – |
| 10 | 20 | O=C(O)[C@@H]1C[C@H]2C[C@@H](Oc3cc(-c4cccnc4)ccc3-c3nnn[nH]3)CC[C@H]2CN1 | – | – |
